In patent US20080153907A1, “Pharmaceutical Composition for the Treatment of Cancer Comprising Lhm-Ra Complex” (NANOHYBRID CO., LTD., priority 2005, published 2008):

Columns and labels:
[1] = system: CHX tumor cells; assay: Tumor development in xenografted nude mice (tumor size); assay type: in vivo, athymic nude mice; settings: RA 0.5 mg/ml, LDH-RA 50 μg/ml, every two weeks for 8 weeks; control tumor 30 mm after 8 weeks
Protocol: (§1) The CHX tumor cells were collected at 1×10^7 cells/well and administered subcutaneously to the hind legs of athymic nude mice. Appearance of tumor mass was observed every week. Tumor masses appeared 3 weeks after the subcutaneous administration, and, when a tumor size was increased to 5 mm, one group of the mice was untreated (control group), and the other groups of the mice were treated as follows: a LDH-dose group with LDH (1 mg/ml), a RA-dose group with RA (0.5 mg/ml), and a LDH-RA dose group with LDH-RA (50 μg/ml). The LDH-dose group, the RA-dose group, and the LDH-RA dose group were further treated with LDH, RA, and LDH-RA, respectively, every two weeks for 8 weeks. Referring to FIG. 12, in the control group, a tumor size was increased to 30 mm after 8 weeks. […] In the RA-dose group, a tumor size was reduced by about 20%. In the LDH-RA dose group, a tumor size was reduced by 80% or more. After then, the mice were anesthetized. Tumor tissues were cut, fixed in formalin, and cut into sections (5 μm thick) on a microtome. The sections were stained with hematoxylin/eosin (H/E) and examined with a microscope (50× magnification), and the results are shown in FIG. 13. Referring to FIG. 13, in the control group, tumor masses were found in almost all tissues, thereby causing growth retardation of tumor, resulting in necrosis. […]

[2] = system: CHX tumor cells; assay: Activity of lactic acid dehydrogenase associated with apoptotic cell death; assay type: cell-based; settings: 250 μg/ml of RA, 12 hours
Protocol: In order to evaluate an anticancer effect of a LDH-RA hybrid obtained according the present invention, activity of lactic acid dehydrogenase associated with apoptotic cell death was measured. For this, the CHX tumor cells were seeded into each well of a 96-well plate. The CHX tumor cells were divided into 6 groups: normal group with no treatment, LDH-dose group with 1,000 μg/ml of LDH, RA-dose group with 250 μg/ml of RA, LDH-RA low-dose group with 25 μg/ml of LDH-RA, LDH-RA mid-dose group with 50 μg/ml of LDH-RA, and LDH-RA high-dose group with 100 μg/ml of LDH-RA. All groups were cultured for 12 hours. 20 μl of pyruvate substrate (NADH 1 mg/ml) was added to each group, and the cultures were mixed at room temperature for 2 minutes and stirred at 37° C. for 30 minutes. 20 μl of a color reagent (Sigma 505-2) was added to each culture, and the resultant cultures were mixed at room temperature for 20 minutes. 100 μg of 0.4N NaOH was added to each culture, and the resultant cultures were mixed at room temperature for 15 minutes. Referring to FIG. 9, the activities of lactic acid dehydrogenase of the normal group, the LDH-dose group, and the RA-dose group were 6±1.5%, 13±2%, and 42±5%, respectively. The activities of lactic acid dehydrogenase of the LDH-RA low-dose group, the LDH-RA mid-dose group, and the LDH-RA high-dose group were 41±2%, 76±6%, and 86±5%, respectively. […]

[3] = system: CHX tumor cells; assay: H/E staining of tumor tissues from xenografted nude mice; assay type: in vivo, athymic nude mice; settings: RA 0.5 mg/ml, every two weeks for 8 weeks
Protocol: as §1

CC1=C(/C=C/C(C)=C/C=C/C(C)=C/C(=O)O)C(C)(C)CCC1 [RA, retinoic acid]
tumor size reduced by [1]: about 20% | activity of lactic acid dehydrogenase [2]: 42±5% | reduction in tumor tissues (H/E staining) [3]: 15%
